Laboratory results as given in patent US20190365799A1, “THERAPIES FOR THE TREATMENT OF LIDOCAINE-INEFFECTIVE AND HYPOKALEMIC CONDITIONS” (AlkaliDx, Inc., priority 2016, published 2019).
“Also recorded” adds a separate entry of the source.

How the values were obtained:
[1] = tested on: sodium channel in the sensory neurons; conditions: local anesthesia; Rozanski et al. 1988, Nakai et al. 2000; cited from earlier work
[2] = oral potassium salt therapy, general statement; cited from earlier work
[3] = tested on: patients with Lidocaine-Ineffective Conditions; experiment: Off-label treatment of patients with lidocaine-ineffective conditions with potassium or potassium-elevating drugs (clinical experience, patient reports); type: in vivo, human
Experimental: The condition is a chronic one, and patients benefit from increasing the serum potassium both prophylactically and acutely. I have discovered that patients with such “Lidocaine-Ineffective Conditions” that are treated with the compositions and methods of this invention (e.g., potassium supplementation or potassium-elevating agents) derive a significant therapeutic benefit.
Based on our research and discussions with us, patients with lidocaine-ineffective conditions have been treated with potassium and potassium-elevating drugs under the care of their personal physician in off-label use.

[4] = clinical experience with 15 patients, potassium supplementation

CCN(CC)CC(=O)Nc1c(C)cccc1C [lidocaine]
share of the population for which lidocaine is ineffective [1]: 2.7-11%

[Cl-].[K+] [potassium chloride]
gastric tolerability [2]: usually results in stomach upset and gastric pain; also recorded: regularly causes gastric upset

O=C([O-])[C@H](O)[C@@H](O)[C@H](O)[C@H](O)CO.[K+] [potassium gluconate]
gastric tolerability [2]: better tolerated

[K+] [potassium]
nervous system sensitivity [3, 4]: restore the normal level of nervous system sensitivity
symptoms of ADHD [3, 4]: suppresses the symptoms of ADHD
patient-reported effect of treatment ([3]; off-label use under care of personal physician, anecdotal patient reports): nothing short of miraculous; also recorded: stopped fighting with their teacher
persistence of effect over time ([3]; off-label use, same dose, middle-aged person): continued to be as effective, at the same dose, after many months
